Earlier results as cited in EP2508186A1, “Phenoxazinones or phenothiazones as inhibitors of amyloid formation” (Max-Delbrück-Centrum für Molekulare Medizin, priority 2011, dated 2012).

Biological target: T1, Aβ42 (Homo sapiens, UniProt P05067)
T1 construct: the amyloid-β 1-42 (Aβ42) peptide
Conditions: previous biochemical investigations; cited from earlier work

T1 sequence (P05067 672-713 limits assumed): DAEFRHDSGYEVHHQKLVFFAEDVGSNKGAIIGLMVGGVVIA

## CN(C)c1ccc2nc3ccc(=[N+](C)C)cc-3sc2c1 [methylene blue]
  effect on Aβ42 fibrillogenesis and A11-reactive oligomers: promotes Aβ42 fibrillogenesis and thereby reduces the amount of A11-reactive, potentially toxic amyloid oligomers
